Patent US11518760B2 (Liverpool School of Tropical Medicine, priority 2017, dated 2022)
pEC50: −log10 of the molar value.

System: C6/36 Aedes albopictus cell line infected with Wolbachia pipientis (Wolbachia strain wAlbB)
Assay: In vitro insect cell line assay (anti-Wolbachia screen, SYTO 11 high content imaging)
Type: cell-based
Conditions: 168 h; C6/36 Aedes albopictus cells infected with Wolbachia pipientis wAlbB, 7 days incubation, SYTO 11 imaging; read-out: In vitro anti-Wolbachia activity
Procedure, shortened: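 Wolbachia wAlbB-infected C6/36 Aedes albopictus cells were exposed to compounds at a final 5 μM for 7 days at 26 °C, with DMSO-medium wells as untreated controls. Cells were then stained with SYTO 11 for 15 min, imaged by high-content microscopy and scored by texture analysis.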

`FC(F)(F)c1ncccc1CNc1nc(N2CCOC3(CCCC3)C2)nc2ncccc12` [Example 272, 2-(6-oxa-9-azaspiro[4.5]decan-9-yl)-N-((2-(trifluoromethyl)pyridin-3-yl)methyl)pyrido[2,3-d]pyrimidin-4-amine] and `FC(F)(F)c1ncccc1CNc1nc(N2CCCC2)nc2ncccc12` [Example 174, 2-(pyrrolidin-1-yl)-N-((2-(trifluoromethyl)pyridin-3-yl)methyl)pyrido[2,3-d]pyrimidin-4-amine] fall in the same range of pEC50: 9.00 to 11.00 for the first, 9.00 to 11.00 for the second.

`CC(Nc1ncnc2cc(I)sc12)c1ccccc1C(F)(F)F` (stereo not drawn) [Example 96, 6-iodo-N-(1-(2-(trifluoromethyl)phenyl)ethyl)thieno[3,2-d]pyrimidin-4-amine] and `CC(Nc1ncnc2c(Br)csc12)c1ccccc1C(F)(F)F` (stereo not drawn) [Example 106, 7-bromo-N-(1-(2-(trifluoromethyl)phenyl)ethyl)thieno[3,2-d]pyrimidin-4-amine] fall in the same range of pEC50: 4.00 to 6.00 for the first, 4.00 to 6.00 for the second.

First: CC(C)Nc1nc(NCCc2ccccc2C(F)(F)F)c2sccc2n1 [Example 45, N^2-isopropyl-N^4-(2-(trifluoromethyl)phenethyl)thieno(3,2-d]pyrimidine-2,4-diamine]
Second: CC(C)Nc1nc(NCc2cccnc2C(F)(F)F)c2sccc2n1 [Example 153, N^2-isopropyl-N^4-((2-(trifluoromethyl)pyridin-3-yl)methyl)thieno[3,2-d]pyrimidine-2,4-diamine]
The pEC50 of the first is lower: 6.00 to 7.00 for the first, 7.00 to 8.00 for the second.

Compared with `FC1(F)CCN(c2nc(NCc3cccnc3C(F)(F)F)c3cccnc3n2)C1` [Example 194, 2-(3,3-difluoropyrrolidin-1-yl)-N-((2-(trifluoromethyl)pyridin-3-yl)methyl)pyrido[2,3-d]pyrimidin-4-amine], `CC1(O)CN(c2nc(NCc3cccnc3C(F)(F)F)c3cccnc3n2)C1` [Example 171, 3-methyl-1-(4-(((2-(trifluoromethyl)pyridin-3-yl)methyl)amino)pyrido[2,3-d]pyrimidin-2-yl)azetidin-3-ol] is lower in pEC50: 8.00 to 9.00 for the first, 6.00 to 7.00 for the second. The first is the more potent here.

First: CNc1nc(NCc2cccnc2C(F)(F)F)c2cccnc2n1 [Example 149, N^2-methyl-N^4-((2-(trifluoromethyl)pyridin-3-yl)methyl)pyrido[2,3-d]pyrimidine-2,4-diamine]
Second: CC1CCN1c1nc(NCc2cccnc2C(F)(F)F)c2cccnc2n1 (stereo not drawn) [Example 172, 2-(2-methylazetidin-1-yl)-N-((2-(trifluoromethyl)pyridin-3-yl)methyl)pyrido[2,3-d]pyrimidin-4-amine]
The pEC50 of the first is lower: 6.00 to 7.00 for the first, 9.00 to 11.00 for the second.

`FC(F)(F)c1ccccc1C1CCCN1c1ncnc2ccsc12` (stereo not drawn) [Example 79] and `FC(F)(F)Oc1ccccc1CNc1ncnc2ccsc12` [Example 24, N-(2-(trifluoromethoxy)benzyl)thieno[3,2-d]pyrimidin-4-amine] fall in the same range of pEC50: 6.00 to 7.00 for the first, 6.00 to 7.00 for the second.

First: CC1(C)CCN(c2nc(NCc3ccccc3C(F)(F)F)c3cccnc3n2)CC1 [Example 244, 2-(4,4-dimethylpiperidin-1-yl)-N-(2-(trifluoromethyl)benzyl)pyndo[2,3-d]pyrimidin-4-amine]
Second: CC1CN(c2nc(NCc3ccccc3C(F)(F)F)c3cccnc3n2)C[C@H](C)O1 (stereo partly drawn) [Example 268, 2-((6S)-2,6-dimethylmorpholino)-N-(2-(trifluoromethyl)benzyl)pyrido[2,3-d]pyrimidin-4-amine]
The pEC50 of the first is higher: 8.00 to 9.00 for the first, 7.00 to 8.00 for the second.

First: CC(O)c1nc(NCc2ccccc2C(F)(F)F)c2sccc2n1 (stereo not drawn) [Example 84]
Second: FC(F)(F)CNc1nc(NCc2ccccc2C(F)(F)F)c2sccc2n1 [Example 42, N^2-(2,2,2-trifluoroethyl)-N^4-(2-(trifluoromethyl)benzyl)thieno[3,2-d]pyrimidine-2,4-diamine]
The pEC50 of the first is lower: 4.00 to 6.00 for the first, 6.00 to 7.00 for the second.

First: FC(F)(F)c1ncccc1CNc1nc(N2CCCC2C(F)(F)F)nc2ncccc12 (stereo not drawn) [Example 264, N-((2-(trifluoromethyl)pyridin-3-yl)methyl)-2-(2-(trifluoromethyl)pyrrolidin-1-yl)pyrido[2,3-d]pyrimidin-4-amine]
Second: FC(F)(F)c1ncccc1CNc1nc(CN2CC(C(F)(F)F)C2)nc2ncccc12 [Example 231, 2-((3-(trifluoromethyl)azetidin-1-yl)methyl)-N-((2-(trifluoromethyl)pyridin-3-yl)methyl)pyrido[2,3-d]pyrimidin-4-amine]
The pEC50 of the first is higher: > 11.00 for the first, 6.00 to 7.00 for the second.

First: CC(C)N(C)c1nc(N(C)Cc2cccnc2C(F)(F)F)c2cccnc2n1 [Example 161, N^2-isopropyl-N^2,N^4-dimethyl-N^4-((2-(trifluoromethyl)pyridin-3-yl)methyl)pyrido[2,3-d]pyrimidine-2,4-diamine]
Second: CC(C)Nc1cc(NCc2cccnc2C(F)(F)F)c2cccnc2n1 [Example 165, N^2-isopropyl-N^4-((2-(trifluoromethyl)pyridin-3-yl)methyl)-1,8-naphthyridine-2,4-diamine]
The pEC50 of the first is higher: 8.00 to 9.00 for the first, 7.00 to 8.00 for the second.

First: CC(C)Nc1nc(NCc2cccc(Cl)c2)c2sccc2n1 [Example 18, N^4-(3-chlorobenzyl)-N^2-isopropyithieno[3,2-d]pyrimidine-2,4-diamine]
Second: CC(C)Nc1nc(NCc2c(F)cccc2Cl)c2sccc2n1 [Example 30, N^4-(2-chloro-6-fluorobenzyl)-N^2-isopropylthieno[3,2-d]pyrimidine-2,4-diamine]
The pEC50 of the first is lower: 4.00 to 6.00 for the first, 6.00 to 7.00 for the second.

First: CC1COCCN1c1nc(N2CCC2c2ccccc2C(F)(F)F)c2cccnc2n1 (stereo not drawn) [Example 214, 3-methyl-4-(4-(2-(2-(trifluoromethyl)phenyl)azetidin-1-yl)pyrido[2,3-d]pyrimidin-2-yl)morpholine]
Second: FC(F)(F)c1ccccc1C1CCN1c1nc(N2CC(C(F)(F)F)C2)nc2ncccc12 (stereo not drawn) [Example 216, 2-(3-(trifluoromethyl)azetidin-1-yl)-4-(2-(2-(trifluoromethyl)phenyl)azetidin-1-yl)pyrido[2,3-d]pyrimidine]
The pEC50 of the first is higher: 9.00 to 11.00 for the first, 6.00 to 7.00 for the second. The first is the more potent here.

First: CC(Nc1ncnc2ccsc12)c1ccccc1Cl (stereo not drawn) [Example 38, N-(1-(2-chlorophenyl)ethyl)thieno[3,2-d]pyrimidin-4-amine]
Second: Clc1nc(NCc2ccccc2Cl)c2sccc2n1 [Example 21, 2-chloro-N-(2-chlorobenzyl)thieno[3,2-d]pyrimidin-4-amine]
The pEC50 of the first is lower: 4.00 to 6.00 for the first, 7.00 to 8.00 for the second.

First: FC(F)(F)c1ncccc1CNc1nc(N2CCC(Cl)C2)nc2ncccc12 (stereo not drawn) [Example 265, 2-(3-chloropyrrolidin-1-yl)-N-((2-(trifluoromethyl)pyridin-3-yl)methyl)pyrido[2,3-d]pyrimidin-4-amine]
Second: CC1CN(c2nc(NCc3cccnc3C(F)(F)F)c3cccnc3n2)CCO1 (stereo not drawn) [Example 241, 2-(2-methylmorpholino)-N-((2-(trifluoromethyl)pyridin-3-yl)methyl)pyrido[2,3-d]pyrimidin-4-amine]
The pEC50 of the first is higher: > 11.00 for the first, 9.00 to 11.00 for the second.

First: CN(Cc1ccc(F)cc1C(F)(F)F)c1ncnc2ccccc12 [Example 75, N-(4-fluoro-2-(trifluoromethyl)benzyl)-N-methylquinazolin-4-amine]
Second: CN(Cc1ccccc1C(F)(F)F)c1nc(C(F)(F)F)nc2ccsc12 [Example 62, N-methyl-2-(trifluoromethyl)-N-(2-(trifluoromethyl)benzyl)thieno[3,2-d]pyrimidin-4-amine]
The pEC50 of the first is lower: 6.00 to 7.00 for the first, 7.00 to 8.00 for the second.

First: CC1CN(c2nc(NCc3cccnc3C(F)(F)F)c3cccnc3n2)C[C@H](C)O1 (stereo partly drawn) [Example 254, 2-((6S)-2,6-dimethylmorpholino)-N-((2-(trifluoromethyl)pyridin-3-yl)methyl)pyrido[2,3-d]pyrimidin-4-amine]
Second: CS(=O)(=O)C1CCN(c2nc(NCc3cccnc3C(F)(F)F)c3cccnc3n2)CC1 [Example 232, 2-(4-(methylsulfonyl)piperidin-1-yl)-N-((2-(trifluoromethyl)pyridin-3-yl)methyl)pyrido[2,3-d]pyrimidin-4-amine]
The pEC50 of the first is higher: 9.00 to 11.00 for the first, 6.00 to 7.00 for the second.

Compared with `CC(c1ccccc1C(F)(F)F)N(C)c1nc(Cl)nc2ccsc12` (stereo not drawn) [Example 67, 2-chloro-N-methyl-N-(1-(2-(trifluoromethyl)phenyl)ethyl)thieno[3,2-d]pyrimidin-4-amine], `CN1CCN(CCNc2nc(NCc3ccccc3C(F)(F)F)c3sccc3n2)CC1` [Example 92, N^2-(2-(4-methyipiperazin-1-yl)ethyl)-N^4-(2-(trifluoromethyl)benzyl)thieno[3,2-d]pyrimidine-2,4-diamine] is lower in pEC50: 6.00 to 7.00 for the first, 4.00 to 6.00 for the second.

`CC(C)Nc1nc(NCc2ccc(S(C)(=O)=O)cc2)c2ncccc2n1` [Example 123, N^2-isopropyl-N^4-(4-(methylsulfonyl)benzyl)pyrido[3,2-d]pyrimidine-2,4-diamine] and `CC(C)Nc1nc(NCc2ccc(S(C)(=O)=O)cc2)c2sccc2n1` [Example 118, N^2-isopropyl-N^4-(4-(methylsuifonyl)benzyl)thieno[3,2-d]pyrimidine-2,4-diamine] fall in the same range of pEC50: 4.00 to 6.00 for the first, 4.00 to 6.00 for the second.

`FC(F)(F)c1cccnc1CNc1ncnc2ccsc12` [Example 61, N-((3-(trifluoromethyl)pyridin-2-yl)methyl)thieno[3,2-d]pyrimidin-4-amine] and `FC(F)(F)c1ncccc1CNc1ncnc2ncccc12` [Example 170, N-((2-(trifluoromethyl)pyridin-3-yl)methyl)pyrido[2,3-d]pyrimidin-4-amine] fall in the same range of pEC50: 4.00 to 6.00 for the first, 4.00 to 6.00 for the second.

First: NC(=O)c1nc(NCc2ccccc2C(F)(F)F)c2cccnc2n1 [Example 146, 4-((2-(trifluoromethyl)benzyl)amino)pyrido[2,3-d]pyrimidine-2-carboxamide]
Second: CC1COCCN1c1nc(NCc2cccnc2C(F)(F)F)c2cc(F)cnc2n1 (stereo not drawn) [Example 303, 6-fluoro-2-(3-methylmorpholino)-N-((2-(trifluoromethyl)pyridin-3-yl)methyl)pyrido[2,3-d]pyrimidin-4-amine]
The pEC50 of the first is lower: 4.00 to 6.00 for the first, 6.00 to 7.00 for the second.

Work on `CC(C)Nc1nc(NCc2ccc(C(F)(F)F)nc2)c2sccc2n1` [Example 119, N^2-isopropyl-N^4-((6-(trifluoromethyl)pyridin-3-yl)methyl)thieno[3,2-d]pyrimidine-2,4-diamine] yielded a pEC50 of 6.00 to 7.00.

Same assay, conditions: C6/36, 168 h, read-out: In vitro anti-Wolbachia activity

`Cc1cc2ncnc(N(C)C(C)c3ccccc3C(F)(F)F)c2s1` (stereo not drawn) [Example 1] was tested, and the pEC50 was 4.00 to 6.00.
